Assay: Organ distribution of Indium-113m EDTMP and DTPMP complexes in rabbits, simultaneous study with Strontium-85
Assay type: in vivo, adult albino rabbits
Conditions: DTPMP group; for % Dose/1% Bodyweight, Average Bone: mean of femur, tibia, spine and pelvis; for % Dose in Whole Organ, Blood / % Dose in Whole Organ, Kidney / % Dose in Whole Organ, Liver / % Dose in Whole Organ, Marrow / % Dose in Whole Organ, Muscle / % Dose in Whole Organ, One Femur / % Dose in Whole Organ, One Tibia / % Dose in Whole Organ, Urine / % Dose/1% Bodyweight, Blood / % Dose/1% Bodyweight, Femur / % Dose/1% Bodyweight, Kidney / % Dose/1% Bodyweight, Liver / % Dose/1% Bodyweight, Marrow / % Dose/1% Bodyweight, Muscle / % Dose/1% Bodyweight, Pelvis / % Dose/1% Bodyweight, Spine / % Dose/1% Bodyweight, Tibia / Ratio Bone/Blood / Ratio Bone/Marrow / Ratio Bone/Muscle: rabbit i.v.
Experimental: 0.5-1.0 mCi of the complexes prepared according to Examples 1 and 4 (containing 2-5 mg of the phosphonate complex) were injected intravenously into adult albino rabbits weighing 3.5-5 kg. […] Organ distribution characteristics of these compositions were determined after sacrificing the animals 1-4 hours after injection using the method described in Perez et al, J. Nucl. Med. 13:788-789, 1972; Subramanian et al, Radiology, 98:192-196, 1971; Subramanian et al, Radiology, 102:701-704, 1972; Subramanian et al, J. Nucl. Med., 13:947-950, 1972; Tofe et al, J. Nucl. Med., 15:69-74, 1974; Yano, J. Nucl Med., 14:73-78, 1973; Castronova et al, J. Nucl. Med., 13:823-827, 1972; and Subramanian et al, J. Nucl. Med., August, 1975 (U.S. application Ser. No. 368,473, filed June 11, 1973). Appropriate corrections were made for Strontium-85 contributions in the Indium-113m windows.
For each time interval 3 animals were used and average values are set forth. The average bone concentrations expressed as % dose/1% body weight: […]
% dose/1% body weight [formula] are the mean of the concentrations in bone samples from femur, tibia, spine and pelvis. This value was calculated for individual rabbits and the mean value of these averages are shown. The values for ratios were calculated in a similar manner.
With respect to Table 1, Strontium 85 was employed as a biological standard to compare the uptake in various organs of individual groups of animals. In quantifying the bone uptake, it is necessary to compare more than merely the indium concentration from one group to another. In addition, the ratios of indium to strontium from each group should be compared because of the individual variation of bone uptake in animals.

O=P(O)(O)CN(CCN(CP(=O)(O)O)CP(=O)(O)O)CCN(CP(=O)(O)O)CP(=O)(O)O [DTPMP, diethylene triamine penta(methylene phosphonic) acid]
% Dose/1% Bodyweight, Average Bone (1 Hr.): 5.14 % Dose/1% Bodyweight | % Dose in Whole Organ, Blood (1 Hr.): 8.61 % Dose | % Dose in Whole Organ, Kidney (1 Hr.): 2.43 % Dose | % Dose in Whole Organ, Liver (1 Hr.): 0.702 % Dose | % Dose in Whole Organ, Marrow (1 Hr.): 0.710 % Dose | % Dose in Whole Organ, Muscle (1 Hr.): 4.61 % Dose | % Dose in Whole Organ, One Femur (1 Hr.): 0.782 % Dose | % Dose in Whole Organ, One Tibia (1 Hr.): 0.641 % Dose | % Dose in Whole Organ, Urine (1 Hr.): 31.2 % Dose | % Dose/1% Bodyweight, Blood (1 Hr.): 1.23 % Dose/1% Bodyweight | % Dose/1% Bodyweight, Femur (1 Hr.): 3.57 % Dose/1% Bodyweight | % Dose/1% Bodyweight, Kidney (1 Hr.): 5.62 % Dose/1% Bodyweight | % Dose/1% Bodyweight, Liver (1 Hr.): 0.276 % Dose/1% Bodyweight | % Dose/1% Bodyweight, Marrow (1 Hr.): 0.322 % Dose/1% Bodyweight | % Dose/1% Bodyweight, Muscle (1 Hr.): 0.107 % Dose/1% Bodyweight | % Dose/1% Bodyweight, Pelvis (1 Hr.): 7.15 % Dose/1% Bodyweight | % Dose/1% Bodyweight, Spine (1 Hr.): 4.80 % Dose/1% Bodyweight | % Dose/1% Bodyweight, Tibia (1 Hr.): 3.39 % Dose/1% Bodyweight | Ratio Bone/Blood (1 Hr.): 4.17 | Ratio Bone/Marrow (1 Hr.): 15.9 | Ratio Bone/Muscle (1 Hr.): 48.0 | % Dose/1% Bodyweight, Average Bone (2 Hr.): 4.58 % Dose/1% Bodyweight | % Dose in Whole Organ, Blood (2 Hr.): 3.88 % Dose | % Dose in Whole Organ, Kidney (2 Hr.): 1.09 % Dose | % Dose in Whole Organ, Liver (2 Hr.): 0.453 % Dose | % Dose in Whole Organ, Marrow (2 Hr.): 0.340 % Dose | % Dose in Whole Organ, Muscle (2 Hr.): 1.92 % Dose | % Dose in Whole Organ, One Femur (2 Hr.): 0.648 % Dose | % Dose in Whole Organ, One Tibia (2 Hr.): 0.519 % Dose | % Dose in Whole Organ, Urine (2 Hr.): 65.7 % Dose | % Dose/1% Bodyweight, Blood (2 Hr.): 0.555 % Dose/1% Bodyweight | % Dose/1% Bodyweight, Femur (2 Hr.): 3.07 % Dose/1% Bodyweight | % Dose/1% Bodyweight, Kidney (2 Hr.): 2.40 % Dose/1% Bodyweight | % Dose/1% Bodyweight, Liver (2 Hr.): 0.173 % Dose/1% Bodyweight | % Dose/1% Bodyweight, Marrow (2 Hr.): 0.154 % Dose/1% Bodyweight | % Dose/1% Bodyweight, Muscle (2 Hr.): 0.044 % Dose/1% Bodyweight | % Dose/1% Bodyweight, Pelvis (2 Hr.): 6.15 % Dose/1% Bodyweight | % Dose/1% Bodyweight, Spine (2 Hr.): 4.59 % Dose/1% Bodyweight | % Dose/1% Bodyweight, Tibia (2 Hr.): 2.92 % Dose/1% Bodyweight | Ratio Bone/Blood (2 Hr.): 8.25 | Ratio Bone/Marrow (2 Hr.): 29.7 | Ratio Bone/Muscle (2 Hr.): 104 | % Dose/1% Bodyweight, Average Bone (4 Hr.): 4.79 % Dose/1% Bodyweight | % Dose in Whole Organ, Blood (4 Hr.): 3.08 % Dose | % Dose in Whole Organ, Kidney (4 Hr.): 1.03 % Dose | % Dose in Whole Organ, Liver (4 Hr.): 0.354 % Dose | % Dose in Whole Organ, Marrow (4 Hr.): 0.432 % Dose | % Dose in Whole Organ, Muscle (4 Hr.): 1.92 % Dose | % Dose in Whole Organ, One Femur (4 Hr.): 0.621 % Dose | % Dose in Whole Organ, One Tibia (4 Hr.): 0.471 % Dose | % Dose in Whole Organ, Urine (4 Hr.): 69.9 % Dose | % Dose/1% Bodyweight, Blood (4 Hr.): 0.441 % Dose/1% Bodyweight | % Dose/1% Bodyweight, Femur (4 Hr.): 2.97 % Dose/1% Bodyweight | % Dose/1% Bodyweight, Kidney (4 Hr.): 2.28 % Dose/1% Bodyweight | % Dose/1% Bodyweight, Liver (4 Hr.): 0.184 % Dose/1% Bodyweight | % Dose/1% Bodyweight, Marrow (4 Hr.): 0.196 % Dose/1% Bodyweight | % Dose/1% Bodyweight, Muscle (4 Hr.): 0.044 % Dose/1% Bodyweight | % Dose/1% Bodyweight, Pelvis (4 Hr.): 6.37 % Dose/1% Bodyweight | % Dose/1% Bodyweight, Spine (4 Hr.): 5.16 % Dose/1% Bodyweight | % Dose/1% Bodyweight, Tibia (4 Hr.): 2.76 % Dose/1% Bodyweight | Ratio Bone/Blood (4 Hr.): 10.8 | Ratio Bone/Marrow (4 Hr.): 24.4 | Ratio Bone/Muscle (4 Hr.): 108

Source: patent publication US4017595A (Research Corporation, priority 1975, dated 1977)
